The experiment concerns L1210 leukemia ip in BDF1 mice, survival T/C. Kind of experiment: NCI In Vivo Anticancer Drug Screen. Data for tumor model L1210 Leukemia (intraperitoneal) in B6D2F1 (BDF1) mice. To be noted: endpoint: mean survival time, higher = longer survival. The procedure, abridged: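 Read-out is survival time, reported as the treated-group measurement over the vehicle-control measurement.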

Setting [1] is: dose: 100.0 mg/kg/injection, schedule: Q04DX003 (ip), vehicle: saline with Tween-80.
[2] abbreviates: dose: 400.0 mg/kg/injection, schedule: Q04DX003 (ip), vehicle: saline with Tween-80.
Where [3] appears, read: dose: 100.0 mg/kg/injection, schedule: Q04DX002 (ip), vehicle: Klucel (hydroxypropylcellulose) (HPC).
Setting [4] is: dose: 200.0 mg/kg/injection, schedule: Q04DX002 (ip), vehicle: Klucel (hydroxypropylcellulose) (HPC).
The mark [5] stands for this setting: dose: 400.0 mg/kg/injection, schedule: Q04DX002 (ip), vehicle: Klucel (hydroxypropylcellulose) (HPC).
The mark [6] stands for this setting: dose: 100.0 mg/kg/injection, schedule: Q01DX009 (ip), vehicle: Klucel (hydroxypropylcellulose) (HPC).
The mark [7] stands for this setting: dose: 100.0 mg/kg/injection, schedule: Q04DX003 (ip), vehicle: Klucel (hydroxypropylcellulose) (HPC).
[8] abbreviates: dose: 200.0 mg/kg/injection, schedule: Q01DX009 (ip), vehicle: Klucel (hydroxypropylcellulose) (HPC).
Where [9] appears, read: dose: 200.0 mg/kg/injection, schedule: Q04DX003 (ip), vehicle: Klucel (hydroxypropylcellulose) (HPC).
[10] abbreviates: dose: 400.0 mg/kg/injection, schedule: Q01DX009 (ip), vehicle: Klucel (hydroxypropylcellulose) (HPC).
The mark [11] stands for this setting: dose: 400.0 mg/kg/injection, schedule: Q04DX003 (ip), vehicle: Klucel (hydroxypropylcellulose) (HPC).
Setting [12] is: dose: 100.0 mg/kg/injection, schedule: Q01DX009 (ip), vehicle: saline.
Setting [13] is: dose: 100.0 mg/kg/injection, schedule: Q04DX003 (ip), vehicle: saline.
Setting [14] is: dose: 200.0 mg/kg/injection, schedule: Q04DX003 (ip), vehicle: saline.
Where [15] appears, read: dose: 400.0 mg/kg/injection, schedule: Q01DX009 (ip), vehicle: saline.
Where [16] appears, read: dose: 400.0 mg/kg/injection, schedule: Q04DX003 (ip), vehicle: saline.
[17] abbreviates: dose: 100.0 mg/kg/injection, schedule: Q01DX001 (ip), vehicle: saline.
The mark [18] stands for this setting: dose: 200.0 mg/kg/injection, schedule: Q01DX001 (ip), vehicle: saline.
Where [19] appears, read: dose: 400.0 mg/kg/injection, schedule: Q01DX001 (ip), vehicle: saline.
Setting [20] is: dose: 200.0 mg/kg/injection, schedule: Q04DX003 (ip), vehicle: saline with Tween-80.

SMILES strings stand for the structures. Inconclusive results and toxic doses are left out.

Experimental findings from PubChem BioAssay AID248 (DTP/NCI, 2004) are described below.

On to `NC(N)=N/N=C\c1ccc2ccccc2c1`, for which the T/C is 100 % of control under setting [1] and 88 % of control under setting [2].
Turning to `Cc1ccc(N=[N+]([O-])c2ccc(C)c(Br)c2)cc1Br`, the T/C reads like this: under setting [3], 102 % of control; under setting [4], 98 % of control; under setting [5], 98 % of control.
As for `CC(C)COC(=O)c1ccccc1O`, the T/C was 98 % of control under setting [6]; 96 % of control under setting [7]; 99 % of control under setting [8]; 96 % of control under setting [9]; 87 % of control under setting [10]; 89 % of control under setting [11].
On to `CC(=O)Nc1ccc2c(c1)Cc1cc(N=Cc3ccc4c(c3)OCO4)ccc1-2`, for which the T/C is, setting by setting: (dose: 100.0 mg/kg/injection, schedule: Q01DX001 (ip), vehicle: carboxymethylcellulose (CMC)) 91 % of control; (dose: 200.0 mg/kg/injection, schedule: Q01DX001 (ip), vehicle: carboxymethylcellulose (CMC)) 104 % of control; (dose: 400.0 mg/kg/injection, schedule: Q01DX001 (ip), vehicle: carboxymethylcellulose (CMC)) 93 % of control.
As for `Cc1cc(=O)c(CO)n[nH]1`, the T/C under setting [12] was 103 % of control; the T/C under setting [13] was 101 % of control; the T/C (dose: 200.0 mg/kg/injection, schedule: Q01DX009 (ip), vehicle: saline) is 95 % of control; the T/C under setting [14] was 106 % of control; the T/C under setting [15] was 98 % of control; the T/C under setting [16] was 103 % of control.
For `CCCCCCC(CO)CO`, the T/C under setting [17] is 89 % of control, the T/C under setting [18] is 91 % of control and the T/C under setting [19] was 94 % of control.
Consider `C=CCOP(=O)(N1CC1CC)N1CC1CC` (stereo not given), for which the T/C runs as follows: (dose: 10.0 mg/kg/injection, schedule: Q01DX015 (ip), vehicle: saline) 103 % of control; (dose: 20.0 mg/kg/injection, schedule: Q01DX015 (ip), vehicle: saline) 96 % of control; (dose: 40.0 mg/kg/injection, schedule: Q01DX015 (ip), vehicle: saline) 102 % of control; (dose: 80.0 mg/kg/injection, schedule: Q01DX015 (ip), vehicle: saline) 108 % of control.
Turning to `CC1=NC(C)(C)CO1`, the T/C reads like this: under setting [17], 101 % of control; under setting [18], 97 % of control; under setting [19], 95 % of control.
Turning to `COC(OC)c1[nH]c(=S)[nH]c(=O)c1Cc1cccc(Cl)c1`, the T/C was 100 % of control under setting [12] and 113 % of control under setting [15].
Regarding `Cc1cc(C)c(I)c(C(=O)O)c1`, the T/C was 95 % of control under setting [1], 104 % of control under setting [20] and 104 % of control under setting [2].
As to `COc1cc([N+](=O)[O-])ccc1NC(=O)Oc1ccc(-c2ccccc2)cc1Cl`, the T/C is 93 % of control under setting [6], 96 % of control under setting [8] and 95 % of control under setting [10].
As for `O=C(OCC(O)C(O)C(O)C(SCc1ccccc1)SCc1ccccc1)c1ccc([N+](=O)[O-])cc1` (stereo not given), the T/C was 93 % of control under setting [17], 94 % of control under setting [18] and 94 % of control under setting [19].
Take `CCC(=O)OC1(c2ccccc2)CCN(C/C=C/c2cccc3ccccc23)CC1`: the T/C was 103 % of control (dose: 100.0 mg/kg/injection, schedule: Q01DX001 (ip), vehicle: gum acacia) and 103 % of control (dose: 200.0 mg/kg/injection, schedule: Q01DX001 (ip), vehicle: gum acacia).
For `CC(=NC(c1ccccc1)c1ccccc1)N(C)C`, the T/C (dose: 100.0 mg/kg/injection, schedule: Q04DX002 (ip), vehicle: saline with Tween-80) is 104 % of control.
For `CCCCCCCCCCCCCCCCCOc1ccc(I)cc1`, the T/C under setting [7] is 91 % of control and the T/C under setting [9] is 91 % of control.
As to `CCC1N(C)CCCN1C`, the T/C is, setting by setting: under setting [1], 97 % of control; under setting [20], 95 % of control.
As to `C=CCN(CC=C)P(=O)(N(CC=C)CC=C)N1CC1`, the T/C was 151 % of control (dose: 3.0 mg/kg/injection, schedule: Q01DX015 (ip), vehicle: saline); 117 % of control (dose: 5.0 mg/kg/injection, schedule: Q01DX001 (ip), vehicle: saline); 155 % of control (dose: 5.0 mg/kg/injection, schedule: Q01DX015 (ip), vehicle: saline); 173 % of control (dose: 7.0 mg/kg/injection, schedule: Q01DX015 (ip), vehicle: saline); 117 % of control (dose: 10.0 mg/kg/injection, schedule: Q01DX001 (ip), vehicle: saline); 178 % of control (dose: 11.0 mg/kg/injection, schedule: Q01DX015 (ip), vehicle: saline). In addition, the T/C under setting [17] was 175 % of control.
As to `CC1(CS(=O)(=O)c2ccccc2)C(=O)C2CCC1C2` (stereo not given), the T/C runs as follows: under setting [17], 90 % of control; under setting [13], 94 % of control; under setting [18], 98 % of control; under setting [14], 89 % of control; under setting [19], 88 % of control; under setting [16], 98 % of control.
Regarding `CC(=O)Nc1ccc(Cl)cc1C(=O)c1ccccc1`, the T/C by setting is: under setting [3], 96 % of control; under setting [4], 108 % of control; under setting [5], 96 % of control.
Turning to `CCCCCCCCCCCCCCCCOc1ccc(C(=O)O)cc1NC(=O)CC(C)=O`, the T/C under setting [7] is 92 % of control, the T/C under setting [9] is 95 % of control and the T/C under setting [11] was 92 % of control.
`O=C1CCc2nc(=O)c3c4ccccc4ccc3n21`: the T/C was 94 % of control (dose: 100.0 mg/kg/injection, schedule: Q01DX001 (ip), vehicle: Klucel (hydroxypropylcellulose) (HPC)); 100 % of control (dose: 200.0 mg/kg/injection, schedule: Q01DX001 (ip), vehicle: Klucel (hydroxypropylcellulose) (HPC)); 99 % of control (dose: 400.0 mg/kg/injection, schedule: Q01DX001 (ip), vehicle: Klucel (hydroxypropylcellulose) (HPC)).
